One experiment addresses SARS-COV2 Mpro (Severe acute respiratory syndrome coronavirus 2, UniProt P0DTD1). Nature of the experiment: COVID-19 (nCoV-2019, SARS-CoV2) Mpro enzymatic assay. The experiment is classed as biochemical.
The next experiment deals with 229E Mpro (Human coronavirus 229E, UniProt P0C6X1). In words: 229E Mpro enzymatic assay. The experiment is classed as biochemical, HCoV 229E. The following applies: Table 3.
A further experiment deals with HCov OC43. Nature of the experiment: HCoV OC43 cytopathic effect (CPE) assay. The experiment is classed as cell-based. The following applies: Table 4, CellTiter Glo. On the procedure: (§1) Compounds were assayed using standard methods against multiple coronaviral strains, including HCoV 229E and OC43 strains. The antiviral activity of compounds was calculated based on the protection of the virus-induced CPE at each concentration normalized by the virus control.
(§2) Reagents and instruments used in this assay include luminescent cell viability assay kit CellTiter Glo (Promega) and Microplate Reader Synergy2 (BioTek).
Reference compound used was remdesivir; detection reagent: CellTiter Glo.) The CPE were measured by CellTiter Glo following the manufacturer's manual. The antiviral activity of compounds was calculated based on the protection of the virus-induced CPE at each concentration normalized by the virus control.
(§3) The cytotoxicity of compounds was assessed under the same conditions, but without virus infection, in parallel. Cell viability was measured with CellTiter Glo. The antiviral activity and cytotoxicity of compounds were expressed as % Inhibition and % Viability, respectively, and calculated with formulas.
Background: Protection from cytopathic effect is a common read-out in antiviral testing.

For a further experiment, the system named is HCoV 229E. Nature of the experiment: HCoV 229E cytopathic effect (CPE) assay. The experiment is classed as cell-based. The following applies: Table 4; CellTiter Glo; read-out: 229E CPE EC50. On the procedure:
as §1, §2
Cytopathic effect (CPE) was measured by CellTiter Glo following the manufacturer's manual. The antiviral activity of compounds was calculated based on the protection of the virus-induced CPE at each concentration normalized by the virus control.
as §3

The target in the next experiment is OC43 Mpro (Human coronavirus OC43, UniProt P0C6X6). Nature of the experiment: OC43 Mpro enzymatic assay. The experiment is classed as biochemical, HCoV OC43. The settings on record: Table 3.
OC43 Mpro, sequence (P0C6X6 3247-3549): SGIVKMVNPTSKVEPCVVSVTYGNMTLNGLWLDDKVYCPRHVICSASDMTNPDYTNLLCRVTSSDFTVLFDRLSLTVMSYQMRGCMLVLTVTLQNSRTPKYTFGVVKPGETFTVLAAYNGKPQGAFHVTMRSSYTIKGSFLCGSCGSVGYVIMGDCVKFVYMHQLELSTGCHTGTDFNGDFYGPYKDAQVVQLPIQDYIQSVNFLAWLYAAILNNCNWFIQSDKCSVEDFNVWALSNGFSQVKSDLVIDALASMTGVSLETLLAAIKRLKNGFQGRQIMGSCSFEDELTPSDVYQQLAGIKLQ
Experiment [1] concerns SARS-CoV-2 WT replicon in Huh7 cells. In words: microbe, parasite or virus in culture. The experiment is classed as cell-based. The following applies: Severe acute respiratory syndrome coronavirus 2, Huh-7, 24 h.

Results on 17 compounds are retold here after patent US20240277795A1, “INHIBITORS OF CYSTEINE PROTEASES AND METHODS OF USE THEREOF” (Pardes Biosciences, Inc., priority 2021, published 2024).

In general, IC50 refers to the midpoint of a concentration-inhibition curve. For orientation: EC50 means the concentration needed to bring the measured effect to its halfway point.

Like-named read-outs stand apart in the source and are kept apart here.

229E Mpro, sequence (P0C6X1 2966-3267): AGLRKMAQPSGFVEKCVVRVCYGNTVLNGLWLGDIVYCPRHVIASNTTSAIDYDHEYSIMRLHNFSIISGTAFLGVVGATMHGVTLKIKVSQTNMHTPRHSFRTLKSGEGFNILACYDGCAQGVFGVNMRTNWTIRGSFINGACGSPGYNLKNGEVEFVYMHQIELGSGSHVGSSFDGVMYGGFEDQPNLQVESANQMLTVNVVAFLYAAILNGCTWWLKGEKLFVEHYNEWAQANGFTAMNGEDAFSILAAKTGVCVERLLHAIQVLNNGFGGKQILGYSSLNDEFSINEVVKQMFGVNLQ

As to `N#C[C@H](C[C@@H]1CCCNC1=O)NC(=O)[C@H](CC1CC1)NC(=O)[C@H](Cc1cccc2ccccc12)NC(=O)c1cnccn1` [Compound 115, N—((S)-1-(((S)-1-(((S)-1-cyano-2-((S)-2-oxopiperidin-3-yl)ethyl)amino)-3-cyclopropyl-1-oxopropan-2-yl)amino)-3-(naphthalen-1-yl)-1-oxopropan-2-yl)pyrazine-2-carboxamide], the half-inhibitory concentration (IC50) against SARS-COV2 Mpro is 2000 to 10000 nM; against 229E Mpro it was less than 2000 nM; at OC43 Mpro it was less than 2000 nM. Besides, the EC50 in the experiment with HCov OC43 (Betacoronavirus 1, OC43) lay in the range of 2000 to 10000 nM; with HCoV 229E, 2000 to 10000 nM.
With `Cc1cc(C(=O)N[C@@H](Cc2cccc3ccccc23)C(=O)N[C@@H](CC2CC2)C(=O)N[C@H](C#N)C[C@@H]2CC(C)(C)NC2=O)no1` [Compound 120, N—((S)-1-(((S)-1-(((S)-1-cyano-2-((R)-5,5-dimethyl-2-oxopyrrolidin-3-yl)ethyl)amino)-3-cyclopropyl-1-oxopropan-2-yl)amino)-3-(naphthalen-1-yl)-1-oxopropan-2-yl)-5-methylisoxazole-3-carboxamide], the IC50 against SARS-COV2 Mpro is 2000 to 10000 nM; at 229E Mpro, less than 2000 nM; at OC43 Mpro, less than 2000 nM. For the same compound, the EC50 was less than 2000 nM in the experiment with HCov OC43 (Betacoronavirus 1, OC43) and 2000 to 10000 nM in the experiment on HCoV 229E.
`N#C[C@H](C[C@@H]1CCCNC1=O)NC(=O)[C@H](CC1CC1)NC(=O)[C@H](Cc1ccc(F)cc1)NC(=O)OCc1ccccc1` [Compound 123]: the figures for the IC50 against SARS-COV2 Mpro, on 229E Mpro and on OC43 Mpro were 10000 to 30000 nM, less than 2000 nM and 2000 to 10000 nM, respectively. Also, the EC50 is 10000 to 30000 nM in the experiment with HCov OC43 (Betacoronavirus 1, OC43) and 10000 to 30000 nM in the experiment with HCoV 229E.
Regarding `Cc1cc(C(=O)N[C@@H](Cc2cccc3ccccc23)C(=O)N[C@@H](CC2CC2)C(=O)N[C@H](C#N)C[C@@H]2CCNC2=O)no1` [Compound 121, N—((S)-1-(((S)-1-(((S)-1-cyano-2-((S)-2-oxopyrrolidin-3-yl)ethyl)amino)-3-cyclopropyl-1-oxopropan-2-yl)amino)-3-(naphthalen-1-yl)-1-oxopropan-2-yl)-5-methylisoxazole-3-carboxamide], the concentration for half-maximal inhibition (IC50) at SARS-COV2 Mpro was 2000 to 10000 nM; on 229E Mpro, less than 2000 nM; at OC43 Mpro, less than 2000 nM. The EC50 was in the range of 2000 to 10000 nM in the experiment on HCov OC43 (Betacoronavirus 1, OC43) and 2000 to 10000 nM in the experiment with HCoV 229E.
For the compound `Cc1cc(C(=O)N[C@@H](Cc2ccc(F)cc2)C(=O)N[C@@H](CC(C)C)C(=O)N[C@H](C#N)C[C@@H]2CCCNC2=O)no1` [Compound 113, N—((S)-1-(((S)-1-(((S)-1-cyano-2-((S)-2-oxopiperidin-3-yl)ethyl)amino)-4-methyl-1-oxopentan-2-yl)amino)-3-(4-tluorophenyl)-1-oxopropan-2-yl)-5-methylisoxazole-3-carboxamide], the IC50 against SARS-COV2 Mpro, at 229E Mpro and against OC43 Mpro was less than 2000 nM in each case. Besides, the concentration for a half-maximal effect (EC50) with HCov OC43 (Betacoronavirus 1, OC43) fell in the range of 2000 to 10000 nM; in the experiment on HCoV 229E, 2000 to 10000 nM.
The compound `C[C@@H](OC1CC1)[C@H](NC(=O)C(F)(F)F)C(=O)N1C[C@H]2[C@@H]([C@H]1C(=O)N[C@H](C#N)C[C@@H]1CCCNC1=O)C2(C)C` [Compound 378] displayed an EC50 in experiment [1] of less than 2000 nM.
In the case of `C[C@@H](OC1(C)CCC1)[C@H](NC(=O)C(F)(F)F)C(=O)N1C[C@H]2[C@@H]([C@H]1C(=O)N[C@H](C#N)C[C@@H]1CCCNC1=O)C2(C)C` [Compound 376], the EC50 in experiment [1] is less than 2000 nM.
`N#C[C@H](C[C@@H]1CCNC1=O)NC(=O)C(CC1CCC(F)(F)CC1)NC(=O)[C@H](Cc1cccc2ccccc12)NC(=O)OCc1ccccc1` (stereo partly drawn) [Compound 128, benzylN-[(1S)-2-[[2-[[(1S)-1-cyano-2-[(3S)-2-oxopyrrolidin-3-yl]ethyl]amino]-1-[(4,4-difluorocyclohexyl)methyl]-2-oxo-ethyl]amino]-1-(1-naphthylmethyl)-2-oxo-ethyl]carbamate]: the half-inhibitory concentration (IC50) against SARS-COV2 Mpro, against 229E Mpro and against OC43 Mpro was less than 2000 nM each time. Besides, the EC50 in the experiment with HCov OC43 (Betacoronavirus 1, OC43) is less than 2000 nM; in the experiment with HCoV 229E, less than 2000 nM.
Turning to `Cc1cc(C(=O)N[C@@H](Cc2cccc3ccccc23)C(=O)N[C@@H](CC2CC2)C(=O)N[C@H](C#N)C[C@@H]2CCCNC2=O)no1` [Compound 111, N—((S)-1-(((S)-1-(((S)-1-cyano-2-((S)-2-oxopiperidin-3-yl)ethyl)amino)-3-cyclopropyl-1-oxopropan-2-yl)amino)-3-(naphthalen-1-yl)-1-oxopropan-2-yl)-5-methylisoxazole-3-carboxamide], the values for the IC50 against SARS-COV2 Mpro, at 229E Mpro and at OC43 Mpro were 2000 to 10000 nM, less than 2000 nM and less than 2000 nM, respectively. The EC50 in the experiment with HCov OC43 (Betacoronavirus 1, OC43) was 2000 to 10000 nM; in the experiment with HCoV 229E, 10000 to 30000 nM.
Consider `CC(C)(C)[C@H](NC(=O)c1cnccn1)C(=O)N1C[C@H]2[C@@H]([C@H]1C(=O)N[C@H](C#N)C[C@@H]1CCNC1=O)C2(C)C` (single isomer, unassigned) [101 Isomer 1], for which the half-maximal inhibitory concentration (IC50) at SARS-COV2 Mpro, against 229E Mpro and at OC43 Mpro was less than 2000 nM throughout. The EC50 was less than 2000 nM in the experiment on HCov OC43 (Betacoronavirus 1, OC43) and 2000 to 10000 nM in the experiment on HCoV 229E.
As for `CC1(C)C[C@@H](C[C@@H](C#N)NC(=O)[C@H](CC2CC2)NC(=O)[C@H](Cc2cccc3ccccc23)NC(=O)c2cnccn2)C(=O)N1` [Compound 118, N—((S)-1-(((S)-1-(((S)-1-cyano-2-((R)-5,5-dimethyl-2-oxopyrrolidin-3-yl)ethyl)amino)-3-cyclopropyl-1-oxopropan-2-yl)amino)-3-(naphthalen-1-yl)-1-oxopropan-2-yl)pyrazine-2-carboxamide], the figures for the 50% inhibitory concentration (IC50) against SARS-COV2 Mpro, at 229E Mpro and against OC43 Mpro were 2000 to 10000 nM, less than 2000 nM and less than 2000 nM, respectively. Further, the EC50 in the experiment on HCov OC43 (Betacoronavirus 1, OC43) lay in the range of 2000 to 10000 nM; in the experiment with HCoV 229E it was 2000 to 10000 nM.
With `CC1(C)[C@@H]2[C@@H](C(=O)N[C@H](C#N)C[C@@H]3CCCNC3=O)N(C(=O)[C@@H](NC(=O)C(F)(F)F)C3CC3)C[C@@H]21` [Compound 377], the EC50 in experiment [1] is less than 2000 nM.
For `CC(C)(C)[C@H](NC(=O)c1cnccn1)C(=O)N1C[C@H]2[C@@H]([C@H]1C(=O)N[C@H](C#N)C[C@@H]1CCNC1=O)C2(C)C` (single isomer, unassigned) [101 Isomer 2], the IC50 is less than 2000 nM on SARS-COV2 Mpro (read-out: COVID-19 Mpro IC50, Table 3); less than 2000 nM on 229E Mpro; less than 2000 nM against OC43 Mpro. Also, the EC50 is less than 2000 nM in the experiment on HCov OC43 and 2000 to 10000 nM in the experiment on HCoV 229E.
Turning to `N#C[C@H](C[C@@H]1CC2(CC2)NC1=O)NC(=O)[C@H](CC1CC1)NC(=O)[C@H](Cc1cccc2ccccc12)NC(=O)OCc1ccccc1` [Compound 110, benzyl((S)-1-(((S)-1-(((S)-1-cyano-2-((R)-5-oxo-4-azaspiro[2.4]heptan-6-yl)ethyl)amino)-3-cyclopropyl-1-oxopropan-2-yl)amino)-3-(naphthalen-1-yl)-1-oxopropan-2-yl)carbamate], the IC50 at SARS-COV2 Mpro, against 229E Mpro and at OC43 Mpro was less than 2000 nM throughout. Also, the EC50 in the experiment with HCoV 229E is less than 2000 nM.
Take `N#C[C@H](C[C@@H]1CCNC1=O)NC(=O)[C@H](CC1CC1)NC(=O)[C@H](Cc1cccc2ccccc12)NC(=O)c1cnccn1` [Compound 119, N—((S)-1-(((S)-1-(((S)-1-cyano-2-((S)-2-oxopyrrolidin-3-yl)ethyl)amino)-3-cyclopropyl-1-oxopropan-2-yl)amino)-3-(naphthalen-1-yl)-1-oxopropan-2-yl)pyrazine-2-carboxamide]: the IC50 on SARS-COV2 Mpro is 2000 to 10000 nM; against 229E Mpro, less than 2000 nM; at OC43 Mpro, less than 2000 nM. Besides, the concentration giving a half-maximal response (EC50) in the experiment with HCov OC43 (Betacoronavirus 1, OC43) lay within 2000 to 10000 nM; with HCoV 229E, 10000 to 30000 nM.
With `CC(C)(C)[C@H](NC(=O)C1(C(F)(F)F)CC1)C(=O)N1C[C@H]2[C@@H]([C@H]1C(=O)N[C@H](C#N)C[C@@H]1CC3(CC3)NC1=O)C2(C)C` [Compound 136, (1R,2S,5S)—N-[(1S)-1-cyano-2-[(6R)-5-oxo-4-azaspiro[2.4]heptan-6-yl]ethyl]-3-[(2S)-3,3-dimethyl-2-[[1-(trifluoromethyl)cyclopropanecarbonyl]amino]butanoyl]-6,6-dimethyl-3-azabicyclo[3.1.0]hexane-2-carboxamide], the IC50 against SARS-COV2 Mpro, against 229E Mpro and at OC43 Mpro was less than 2000 nM throughout. In addition, the EC50 in the experiment with HCoV 229E is less than 2000 nM.
For the compound `N#C[C@H](C[C@@H]1CCCNC1=O)NC(=O)[C@H](CC1CC1)NC(=O)[C@H](Cc1cccc2ccccc12)NC(=O)OCc1ccccc1` [Compound 116, Benzyl((S)-1-(((S)-1-(((S)-1-cyano-2-((S)-2-oxopiperidin-3-yl)ethyl)amino)-3-cyclopropyl-1-oxopropan-2-yl)amino)-3-(naphthalen-1-yl)-1-oxopropan-2-yl)carbamate], the IC50 against SARS-COV2 Mpro, against 229E Mpro and against OC43 Mpro was less than 2000 nM throughout. For the same compound, the EC50 with HCov OC43 (Betacoronavirus 1, OC43) was less than 2000 nM; in the experiment with HCoV 229E it was 2000 to 10000 nM.
